{
  "source": "patent US20250145633A1",
  "about": "“SUBSTITUTED FURANOPYRIMIDINE COMPOUNDS AS PDE1 INHIBITORS” (Dart NeuroScience, LLC, priority 2017, published 2025)",
  "data": [
    {"target": "human PDE1B enzyme (Homo sapiens (Human), UniProt Q01064)", "experiment": "IMAP TR-FRET PDE1B enzymatic assay", "type": "biochemical", "settings": "negative log of half-maximal molar inhibitory concentration; 200 nM FAM-cAMP; values given as bins", "how_it_was_run": "(§1)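 Full-length GST-tagged human PDE1B (250 pg/well) in IMAP BSA buffer with 10 U/ml calmodulin and 2.5 mM CaCl2; compound pre-incubated 5 min at room temperature, then 200 nM (final) FAM-cAMP for 30 min. IMAP binding reagent/Tb added, 1 h; TR-FRET 520/490 ratio read. IC50 from sigmoidal dose-response fit.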", "values": [
      {"smiles": "Cc1oc2ncnc(NC3(C)CC3)c2c1C(=O)N1CCN(c2ccccc2)CC1", "note": "[Example 1, (6-Methyl-4-((1-methylcyclopropyl)amino)furo[2,3-d]pyrimidin-5-yl)(4-phenylpiperazin-1-yl)methanone]", "PDE1b (pIC50)": ">8"},
      {"smiles": "Cc1oc2ncnc(NC3(C)CC3)c2c1C(=O)NCc1cc(C2CC2)ncn1", "note": "[Example 686, N-[(6-Cyclopropylpyrimidin-4-yl)methyl]-6-methyl-4-[(1-methylcyclopropyl)amino]furo[2,3-d]pyrimidine-5-carboxamide]", "PDE1b (pIC50)": ">8"},
      {"smiles": "COc1ncc(C2CCN(C(=O)c3c(C)oc4ncnc(NC5(C)CC5)c34)CC2)cc1F", "note": "[Example 14, 5-[4-(5-Fluoro-6-methoxypyridin-3-yl)piperidine-1-carbonyl]-6-methyl-N-(1-methylcyclopropyl)furo[2,3-d]pyrimidin-4-amine]", "PDE1b (pIC50)": ">8"},
      {"smiles": "Cc1oc2ncnc(NC3(C)CC3)c2c1C(=O)N1CCc2c(ncnc2OCC2CC2)C1", "note": "[Example 808, 5-[4-(Cyclopropylmethoxy)-5H,6H,7H,8H-pyrido[3,4-d]pyrimidine-7-carbonyl]-6-methyl-N-(1-methylcyclopropyl)furo[2,3-d]pyrimidin-4-amine]", "PDE1b (pIC50)": ">8"},
      {"smiles": "COc1cccc(C2CCN(C(=O)c3c(C)oc4ncnc(NC5(C)CC5)c34)CC2)n1", "note": "[Example 422, 5-[4-(6-Methoxypyridin-2-yl)piperidine-1-carbonyl]-6-methyl-N-(1-methylcyclopropyl)furo[2,3-d]pyrimidin-4-amine]", "PDE1b (pIC50)": ">8"},
      {"smiles": "Cc1oc2ncnc(NC3(C)CC3)c2c1C(=O)N1CCC2(C=Cc3ccccc32)CC1", "note": "[Example 387, 6-Methyl-N-(1-methylcyclopropyl)-5-({spiro[indene-1,4′-piperidine]-1′-yl}carbonyl)furo[2,3-d]pyrimidin-4-amine]", "PDE1b (pIC50)": ">8"},
      {"smiles": "COc1ccc(CNC(=O)c2c(C)oc3ncnc(NC4(C)CC4)c23)nc1", "note": "[Example 55, N-[(5-Methoxypyridin-2-yl)methyl]-6-methyl-4-[(1-methylcyclopropyl)amino]furo[2,3-d]pyrimidine-5-carboxamide]", "PDE1b (pIC50)": ">8"}
    ]},
    {"target": "human PDE1B enzyme (Homo sapiens (Human), UniProt Q01064)", "experiment": "IMAP TR-FRET PDE1B enzymatic assay", "type": "biochemical", "settings": "negative log of half-maximal molar inhibitory concentration; 200 nM FAM-cAMP; values given as bins; read-out: PDE1b (pIC50) (converted)", "how_it_was_run": "as §1", "units": {"IC50": "µM"}, "values": [
      {"smiles": "Cc1oc2ncnc(NC3(C)CC3)c2c1C(=O)NCc1ccc(F)cn1", "note": "[Example 49, N-[(5-Fluoropyridin-2-yl)methyl]-6-methyl-4-[(1-methylcyclopropyl)amino]furo[2,3-d]pyrimidine-5-carboxamide]", "IC50": "0.01 to 0.1"},
      {"smiles": "Cc1oc2ncnc(NC3(C)CC3)c2c1C(=O)n1cc(-c2ccccc2)cn1", "note": "[Example 405, 6-Methyl-N-(1-methylcyclopropyl)-5-(4-phenyl-1H-pyrazole-1-carbonyl)furo[2,3-d]pyrimidin-4-amine]", "IC50": "0.1 to 1"},
      {"smiles": "CCc1nccc(CNC(=O)c2c(C)oc3ncnc(NC4(C)CC4)c23)n1", "note": "[Example 726, N-[(2-Ethylpyrimidin-4-yl)methyl]-6-methyl-4-[(1-methylcyclopropyl)amino]furo[2,3-d]pyrimidine-5-carboxamide]", "IC50": "0.01 to 0.1"},
      {"smiles": "Cc1nc(C)c(C2CCN(C(=O)c3c(C)oc4ncnc(NC5(C)CC5)c34)CC2)[nH]1", "note": "[Example 780, 5-[4-(2,4-Dimethyl-1H-imidazol-5-yl)piperidine-1-carbonyl]-6-methyl-N-(1-methylcyclopropyl)furo[2,3-d]pyrimidin-4-amine]", "IC50": "0.1 to 1"},
      {"smiles": "Cc1oc2ncnc(NC3(C)CC3)c2c1C(=O)Nc1cnn(CCN2CCOCC2)c1", "note": "[Example 421, 6-Methyl-4-[(1-methylcyclopropyl)amino]-N-{1-[2-(morpholin-4-yl)ethyl]-1H-pyrazol-4-yl}furo[2,3-d]pyrimidine-5-carboxamide]", "IC50": "0.01 to 0.1"},
      {"smiles": "Cc1oc2ncnc(NC3(C)CC3)c2c1C(=O)N1CCc2sccc2C1", "note": "[Example 273, 6-Methyl-N-(1-methylcyclopropyl)-5-{4H,5H,6H,7H-thieno[3,2-c]pyridine-5-carbonyl}furo[2,3-d]pyrimidin-4-amine]", "IC50": "0.01 to 0.1"},
      {"smiles": "CON(C)C(=O)c1c(C)oc2ncnc(NC3(C)CC3)c12", "note": "[Example 643, N-Methoxy-N,6-dimethyl-4-[(1-methylcyclopropyl)amino]furo[2,3-d]pyrimidine-5-carboxamide]", "IC50": "0.1 to 1"},
      {"smiles": "Cc1oc2ncnc(NC3(C)CC3)c2c1C(=O)Nc1ccn(-c2ncccc2F)n1", "note": "[Example 446, N-[1-(3-Fluoropyridin-2-yl)-1H-pyrazol-3-yl]-6-methyl-4-[(1-methylcyclopropyl)amino]furo[2,3-d]pyrimidine-5-carboxamide]", "IC50": "0.01 to 0.1"},
      {"smiles": "Cc1cc(NC(=O)c2c(C)oc3ncnc(NC4(C)CC4)c23)no1", "note": "[Example 142, 6-Methyl-N-(5-methyl-1,2-oxazol-3-yl)-4-[(1-methylcyclopropyl)amino]furo[2,3-d]pyrimidine-5-carboxamide]", "IC50": "0.01 to 0.1"},
      {"smiles": "Cc1oc2ncnc(NC3(C)CC3)c2c1C(=O)N1CCN(c2ncc(F)cn2)C(C)C1", "note": "(stereo not shown) [Example 358, 5-[4-(5-Fluoropyrimidin-2-yl)-3-methylpiperazine-1-carbonyl]-6-methyl-N-(1-methylcyclopropyl)furo[2,3-d]pyrimidin-4-amine]", "IC50": "0.01 to 0.1"},
      {"smiles": "COCc1nc2c(c(OCF)n1)CCN(C(=O)c1c(C)oc3ncnc(NC4(C)CC4)c13)C2", "note": "[Example 773, 5-[4-(Fluoromethoxy)-2-(methoxymethyl)-5H,6H,7H,8H-pyrido[3,4-d]pyrimidine-7-carbonyl]-6-methyl-N-(1-methylcyclopropyl)furo[2,3-d]pyrimidin-4-amine]", "IC50": "0.01 to 0.1"},
      {"smiles": "Cc1cn2c(n1)CN(C(=O)c1c(C)oc3ncnc(NC4(C)CC4)c13)CC2", "note": "[Example 633, 6-Methyl-5-{2-methyl-5H,6H,7H,8H-imidazo[1,2-a]pyrazine-7-carbonyl}-N-(1-methylcyclopropyl)furo[2,3-d]pyrimidin-4-amine]", "IC50": "0.1 to 1"},
      {"smiles": "Cc1oc2ncnc(NC3(C)CC3)c2c1C(=O)NCc1ccccc1F", "note": "[Example 218, N-[(2-Fluorophenyl)methyl]-6-methyl-4-[(1-methylcyclopropyl)amino]furo[2,3-d]pyrimidine-5-carboxamide]", "IC50": "0.01 to 0.1"},
      {"smiles": "CCC(NC(=O)c1c(C)oc2ncnc(NC3(C)CC3)c12)C1CC1", "note": "(stereo not shown) [Example 401, N-(1-Cyclopropylpropyl)-6-methyl-4-[(1-methylcyclopropyl)amino]furo[2,3-d]pyrimidine-5-carboxamide]", "IC50": "0.01 to 0.1"},
      {"smiles": "Cc1oc2ncnc(NC3(C)CC3)c2c1C(=O)N1CCc2c(ncnc2OC(C)C)C1", "note": "[Example 465, 6-Methyl-N-(1-methylcyclopropyl)-5-[4-(propan-2-yloxy)-5H,6H,7H,8H-pyrido[3,4-d]pyrimidine-7-carbonyl]furo[2,3-d]pyrimidin-4-amine]", "IC50": "0.01 to 0.1"},
      {"smiles": "Cc1oc2ncnc(NC3(C)CC3)c2c1C(=O)N1CCc2cnc(F)nc2C1", "note": "[Example 307, 5-{2-Fluoro-5H,6H,7H,8H-pyrido[3,4-d]pyrimidine-7-carbonyl}-6-methyl-N-(1-methylcyclopropyl)furo[2,3-d]pyrimidin-4-amine]", "IC50": "0.01 to 0.1"},
      {"smiles": "COc1cccc(-c2cnn(C(=O)c3c(C)oc4ncnc(NC5(C)CC5)c34)c2)c1", "note": "[Example 412, 5-[4-(3-Methoxyphenyl)-1H-pyrazole-1-carbonyl]-6-methyl-N-(1-methylcyclopropyl)furo[2,3-d]pyrimidin-4-amine]", "IC50": "0.01 to 0.1"},
      {"smiles": "Cc1oc2ncnc(NC3(C)CC3)c2c1C(=O)NCc1nnc2ccc(C(F)(F)F)cn12", "note": "[Example 463, 6-Methyl-4-[(1-methylcyclopropyl)amino]-N-{[6-(trifluoromethyl)-[1,2,4]triazolo[4,3-a]pyridin-3-yl]methyl}furo[2,3-d]pyrimidine-5-carboxamide]", "IC50": "0.01 to 0.1"}
    ]}
  ]
}
